These results are taken from patent US11596611B2, “Hepatitis B antiviral agents” (ENANTA PHARMACEUTICALS, INC., priority 2017, dated 2023).

As usually defined, the EC50 is the concentration giving half of the maximal effect.

The first assay concerns HBV. The assay is described as follows: HepAD38 antiviral assay: reduction of viral product accumulation (virion DNA by qPCR, HBsAg or HBeAg by ELISA). Format: cell-based, hepatitis B virus. The following applies: Hepatitis B virus, 120 h; HepAD38 cells, five days after compound addition; 50% reduction of viral product vs no drug controls; read-out: HepAD38 EC50. How it is done: Methods: HepAD38 cells are maintained as previously reported (Ladner et al, Antimicrob. Agents Chemother. 1997, […], 1715). Briefly, cells are passaged upon attaining confluency in DMEM/F12 media in the presence of 10% FBS, Penn/Strep, 250 μg/mL G418, and 1 ug/ml tetracycline. Novel compounds are screened by first washing cells three times with PBS to remove tetracycline, and plating in 96 well plates at 35,000 cells/well. Compounds dissolved in DMSO are then diluted 1:200 into wells containing cells. Five days after compound addition, material is harvested for analysis. For an extended 8 days analysis, cells are plated and treated as described above, but media and compound are refreshed on d2 and d5 post initial treatment.
On harvest day, virion DNA is obtained by lysing with Sidestep Lysis and Stabilization Buffer and then quantified via quantitative real time PCR. Commercially available ELISA kits are used to quantitate the viral proteins HBsAg (Alpco) or HbeAg (US Biological) by following the manufacturer's recommended protocol after diluting samples to match the linear range of their respective assays.
For `C[C@H](O)[C@@H](O)[C@]1(O)C2CCC1C[C@@H](S(=O)(=O)c1cc(C(=O)Nc3ccc(F)c(F)c3)n(C)c1)C2` [Example 341], the half-maximal effective concentration (EC50) was more than 0.2 µM. Consider `CC(C)(C1CCC2(CC1)OCCO2)S(=O)(=O)c1cc(C(=O)Nc2ccc(F)c(F)c2)ccc1Cl` [Example 231], for which the 50% effective concentration (EC50) is more than 0.2 µM.

With `O=C(Nc1ccc(F)c(F)c1)c1ccc(Cl)c(S(=O)(=O)[C@H]2CC3CCC(C2)[C@]3(O)C(O)CN2CCOC2=O)c1` (stereo partly drawn) [Example 315], the EC50 was more than 0.2 µM.

Take `O=C(C[C@]1(O)C2CCC1C[C@@H](S(=O)(=O)c1cc(C(=O)Nc3cc(F)c(F)c(F)c3)ccc1Cl)C2)NC1COC1` [Example 110]: the EC50 is less than 0.104 µM.

Take `Cc1cccc([C@H](O)[C@@]2(O)C3CC[C@H]2C[C@H](S(=O)(=O)c2cc(C(=O)Nc4ccc(F)c(F)c4)ccc2Cl)C3)n1` [Example 294a]: the EC50 was less than 0.104 µM. On the same count and under the same terms, the same measure for `COC(=O)N1CCCC1C(=O)NC[C@@]1(O)C2CC[C@H]1C[C@H](S(=O)(=O)c1cc(C(=O)Nc3cc(F)c(F)c(F)c3)ccc1Cl)C2` (stereo partly drawn) [Example 23]: less than 0.104 µM; for `O=C(Nc1ccc(F)c(F)c1)c1ccc(Cl)c(S(=O)(=O)C2CC(C(=O)NCCO)C2)c1` (stereo not drawn) [Example 254]: more than 0.2 µM; for `O=C(Nc1ccc(F)c(F)c1)c1ccc(Cl)c(S(=O)(=O)CC2CCC(F)(F)CC2)c1` [Example 219]: more than 0.2 µM. `O=C(Nc1ccc(F)c(F)c1)c1ccc(Cl)c(S(=O)(=O)C2CC(C(=O)O)C2)c1` (stereo not drawn) [Example 251]: the EC50 is more than 0.2 µM.

Consider `CC(C)([C@H]1CC[C@@](C)(O)CC1)S(=O)(=O)c1cc(C(=O)Nc2ccc(F)c(F)c2)ccc1Cl` [Example 237], for which the EC50 is more than 0.2 µM.

With `CC(=O)C[C@]1(O)CC[C@H](CS(=O)(=O)c2cc(C(=O)Nc3ccc(F)c(F)c3)ccc2Cl)CC1` [Example 222], the EC50 was 0.1 to 0.2 µM. For `O=C(Nc1ccc(F)c(F)c1)c1ccc(Cl)c(S(=O)(=O)CC2CCC(O)(CO)CC2)c1` (stereo not drawn) [Example 194], the EC50 lay within 0.1 to 0.2 µM. The same measure, in the same setting: the same measure for `CCC1(O)CC(S(=O)(=O)c2cc(C(=O)Nc3ccc(F)c(F)c3)ccc2Cl)C1` (stereo not drawn) [Example 233]: more than 0.2 µM; for `O=C(O)CNC(=O)C[C@]1(O)C2CCC1C[C@@H](S(=O)(=O)c1cc(C(=O)Nc3cc(F)c(F)c(F)c3)ccc1Cl)C2` [Example 120]: more than 0.2 µM. Same read-out and setting: the same measure for `C[C@]1(O)C2CCC1C[C@@H](S(=O)(=O)c1cc(C(=O)Nc3ccncn3)ccc1Cl)C2` [Example 221]: more than 0.2 µM; for `O=C(Nc1ccc(F)c(F)c1)c1ccc(Cl)c(S(=O)(=O)[C@H]2CC3CCC(C2)[C@]3(O)C(O)Cn2cccn2)c1` (stereo partly drawn) [Example 314]: less than 0.104 µM. Still for that read-out and setting: the same measure for `C[C@@]1(O)C2CC[C@H]1C[C@H](S(=O)(=O)c1cc(C(=O)Nc3ccc(F)c(F)c3)c(-c3ccncc3)cc1Cl)C2` [Example 132]: more than 0.2 µM; for `C[C@H](O)[C@@H](O)COC[C@]1(O)C2CCC1C[C@@H](S(=O)(=O)c1cc(C(=O)Nc3cc(F)c(F)c(F)c3)ccc1Cl)C2` (single isomer, unassigned) [Example 164]: less than 0.104 µM; for `CC(O)C(O)CNC(=O)C[C@]1(O)C2CCC1C[C@@H](S(=O)(=O)c1cc(C(=O)Nc3cc(F)c(F)c(F)c3)ccc1Cl)C2` (stereo partly drawn) [Example 57]: 0.1 to 0.2 µM. Take `C[C@H](O)COCC1(O)CC(S(=O)(=O)c2cc(C(=O)Nc3ccc(F)c(F)c3)ccc2Cl)C1` (stereo partly drawn) [Example 230]: the EC50 is more than 0.2 µM. Same read-out and setting: with `C[C@H](O)C(=O)O[C@@H](C)C(=O)NC[C@]1(O)C2CCC1C[C@@H](S(=O)(=O)c1cc(C(=O)Nc3cc(F)c(F)c(F)c3)ccc1Cl)C2` (single isomer, unassigned) [Example 106] the figure was less than 0.104 µM. As for `COC(=O)N1CC[C@@H](O)[C@H]1C(=O)NC[C@]1(O)C2CCC1C[C@@H](S(=O)(=O)c1cc(C(=O)Nc3cc(F)c(F)c(F)c3)ccc1Cl)C2` [Example 78], the EC50 was more than 0.2 µM.

`O=C(Nc1ccc(F)c(F)c1)c1ccc(Cl)c(S(=O)(=O)C2CC3CCC(C2)C3=O)c1` (stereo not drawn) [Example 204]: the EC50 lay in the range of 0.1 to 0.2 µM. On the same count and under the same terms, the same measure for `O=C(Nc1cc(F)c(F)c(F)c1)c1ccc(Cl)c(S(=O)(=O)[C@@H]2CC3CC[C@@H](C2)[C@@]3(O)CNC(=O)C2CC=CC2)c1` [Example 22]: less than 0.104 µM; for `O=C(Nc1ccc(F)c(F)c1)c1ccc(Cl)c(S(=O)(=O)[C@H]2CC3CCC(C2)[C@]3(O)C(=O)O)c1` [Example 205]: more than 0.2 µM; for `COC(=O)CCNC(=O)[C@H]1C[C@H](S(=O)(=O)c2cc(C(=O)Nc3ccc(F)c(F)c3)ccc2Cl)C1` [Example 257a]: more than 0.2 µM. The same measure, in the same setting: the same measure for `CC(C)C(O)[C@]1(O)C2CCC1C[C@@H](S(=O)(=O)c1cc(C(=O)Nc3ccc(F)c(F)c3)ccc1Cl)C2` (stereo partly drawn) [Example 281]: more than 0.2 µM; for `COC(=O)CNC(=O)C[C@]1(O)C2CCC1C[C@@H](S(=O)(=O)c1cc(C(=O)Nc3cc(F)c(F)c(F)c3)ccc1Cl)C2` [Example 119]: more than 0.2 µM; for `CC[C@H](O)[C@@H](O)[C@]1(O)C2CCC1C[C@@H](S(=O)(=O)c1cc(C(=O)Nc3ccc(F)c(F)c3)ccc1Cl)C2` [Example 334]: less than 0.104 µM. Same read-out and setting: the same measure for `COC(=O)N[C@H](C(=O)NC[C@]1(O)C2CCC1C[C@@H](S(=O)(=O)c1cc(C(=O)Nc3cc(F)c(F)c(F)c3)ccc1Cl)C2)C(C)C` [Example 50]: less than 0.104 µM; for `O=C(Nc1cc(F)c(F)c(F)c1)c1ccc(Cl)c(S(=O)(=O)[C@H]2CC3CCC(C2)[C@]3(O)CNC(=O)C2CCOC2)c1` (stereo partly drawn) [Example 87]: less than 0.104 µM. In the case of `C=CCC1(O)CC(S(=O)(=O)c2cc(C(=O)Nc3ccc(F)c(F)c3)ccc2Cl)C1` (stereo not drawn) [Example 239], the EC50 is more than 0.2 µM. With `O=C(Nc1ccc(F)c(F)c1)c1ccc(Cl)c(S(=O)(=O)[C@H]2CC3CCC(C2)[C@]3(O)C(O)c2cccnc2)c1` (stereo partly drawn) [Example 285], the 50% effective concentration (EC50) was less than 0.104 µM. As to `CC[C@@H](O)[C@H](O)[C@]1(O)C2CCC1C[C@@H](S(=O)(=O)c1cc(C(=O)Nc3ccc(F)c(F)c3)ccc1Cl)C2` (racemic) [Example 333], the concentration giving a half-maximal response (EC50) is less than 0.104 µM. `O=C(C[C@]1(O)C2CCC1C[C@@H](S(=O)(=O)c1cc(C(=O)Nc3cc(F)c(F)c(F)c3)ccc1Cl)C2)Nc1nccs1` [Example 138]: the 50% effective concentration (EC50) is less than 0.104 µM. Take `C[C@]1(O)C2CCC1C[C@@H](S(=O)(=O)c1cc(C(=O)Nc3cc(F)cc(F)c3)ccc1Cl)C2` [Example 105]: the EC50 is less than 0.104 µM. For `COC(=O)N1CCC[C@H]1C(=O)N1C2CCC1CC(S(=O)(=O)c1cc(C(=O)Nc3cc(F)c(F)c(F)c3)ccc1Cl)C2` (stereo partly drawn) [Example 143], the 50% effective concentration (EC50) was more than 0.2 µM. On the same count and under the same terms, with `O=C(Nc1ccc(F)c(F)c1)c1ccc(Cl)c(S(=O)(=O)[C@H]2CC3CCC(C2)[C@]3(O)C(O)c2ncccc2F)c1` (stereo partly drawn) [Example 297] the figure was less than 0.104 µM. Same read-out and setting: with `O=C(Nc1ccc(F)c(F)c1)c1ccc(Cl)c(S(=O)(=O)[C@H]2CC3CCC(C2)[C@]3(O)C(O)Cc2cccnc2)c1` (stereo partly drawn) [Example 318] the figure was more than 0.2 µM; with `COC(=O)N[C@@H](CO)C(=O)NC[C@]1(O)C2CCC1C[C@@H](S(=O)(=O)c1cc(C(=O)Nc3cc(F)c(F)c(F)c3)ccc1Cl)C2` [Example 49], more than 0.2 µM.

`O=C(CC1(O)CC(S(=O)(=O)c2cc(C(=O)Nc3ccc(F)c(F)c3)ccc2Cl)C1)NCCO` (stereo not drawn) [Example 245]: the half-maximal effective concentration (EC50) was more than 0.2 µM.

The same assay, now with this note: Hepatitis B virus, HePAD38, 120 h, read-out: HepAD38 EC50 (μM).
`O=C(Nc1cc(F)c(F)c(F)c1)c1ccc(Cl)c(S(=O)(=O)[C@@H]2CC3CC[C@@H](C2)N3C[C@H](O)CO)c1` [Example 153]: the EC50 fell in the range of 0.1 to 0.2 µM.
